Data from ChEMBL document CHEMBL5518215, “Unlocking Antibacterial Potential: Key-Site-Based Regulation of Antibacterial Spectrum of Peptides” (J Med Chem, 2024).

Key:
Escherichia coli [1] = assay: Antimicrobial activity against Escherichia coli 25922 assessed as absence bacterial growth measured after 18 to 24 hrs incubation by NCCLS method; assay type: functional; conditions: time 18-24 hrs
Escherichia coli [2] = assay: Antimicrobial activity against Escherichia coli K88 assessed as absence bacterial growth measured after 18 to 24 hrs incubation by NCCLS method; assay type: functional; conditions: time 18-24 hrs
Salmonella typhimurium [3] = assay: Antimicrobial activity against Salmonella typhimurium 14028 assessed as absence bacterial growth measured after 18 to 24 hrs incubation by NCCLS method; assay type: functional, Salmonella enterica subsp. enterica serovar Typhimurium; conditions: Salmonella enterica, time 18-24 hrs
[4] = Antimicrobial activity against Salmonella pullorum C7913 assessed as absence bacterial growth measured after 18 to 24 hrs incubation by NCCLS method; assay type: functional, Salmonella enterica subsp. enterica serovar Pullorum; conditions: Salmonella enterica, time 18-24 hrs
Pseudomonas aeruginosa [5] = assay: Antimicrobial activity against Pseudomonas aeruginosa 27853 assessed as absence bacterial growth measured after 18 to 24 hrs incubation by NCCLS method; assay type: functional; conditions: time 18-24 hrs
Acinetobacter baumannii [6] = assay: Antimicrobial activity against Acinetobacter baumannii 1.6769 assessed as absence bacterial growth measured after 18 to 24 hrs incubation by NCCLS method; assay type: functional; conditions: time 18-24 hrs
Enterococcus faecalis [7] = assay: Antimicrobial activity against Enterococcus faecalis 29212 assessed as absence bacterial growth measured after 18 to 24 hrs incubation by NCCLS method; assay type: functional; conditions: time 18-24 hrs
Listeria monocytogenes [8] = assay: Antimicrobial activity against Listeria monocytogenes 1.10753 assessed as absence bacterial growth measured after 18 to 24 hrs incubation by NCCLS method; assay type: functional; conditions: time 18-24 hrs
Bacillus cereus [9] = assay: Antimicrobial activity against Bacillus cereus 1.932 assessed as absence bacterial growth measured after 18 to 24 hrs incubation by NCCLS method; assay type: functional; conditions: time 18-24 hrs
Staphylococcus aureus [10] = assay: Antimicrobial activity against Staphylococcus aureus 29213 assessed as absence bacterial growth measured after 18 to 24 hrs incubation by NCCLS method; assay type: functional; conditions: time 18-24 hrs
Staphylococcus aureus [11] = assay: Antimicrobial activity against Methicillin-resistant Staphylococcus aureus 43300 assessed as absence bacterial growth measured after 18 to 24 hrs incubation by NCCLS method; assay type: functional; conditions: time 18-24 hrs
[12] = system: Staphylococcus epidermidis; assay: Antimicrobial activity against Staphylococcus epidermidis 12228 assessed as absence bacterial growth measured after 18 to 24 hrs incubation by NCCLS method; assay type: functional; conditions: time 18-24 hrs
Staphylococcus aureus [13] = assay: Antimicrobial activity against Staphylococcus aureus 29213 assessed as absence bacterial growth measured after 18 to 24 hrs incubation by NCCLS m; assay type: functional; conditions: time 18-24 hrs
Escherichia coli [14] = assay: Antimicrobial activity against Escherichia coli 25922 assessed as bacterial killing measured after 16 hrs incubation; assay type: functional
Escherichia coli [15] = assay: Antimicrobial activity against Escherichia coli K88 assessed as bacterial killing measured after 16 hrs incubation; assay type: functional
Salmonella typhimurium [16] = assay: Antimicrobial activity against Salmonella typhimurium 14028 assessed as bacterial killing measured after 16 hrs incubation; assay type: functional, Salmonella enterica subsp. enterica serovar Typhimurium; conditions: Salmonella enterica
Salmonella typhimurium [17] = assay: Antimicrobial activity against Salmonella typhimurium C7731 assessed as bacterial killing measured after 16 hrs incubation; assay type: functional, Salmonella enterica subsp. enterica serovar Typhimurium; conditions: Salmonella enterica
[18] = Antimicrobial activity against Salmonella pullorum C7913 assessed as bacterial killing measured after 16 hrs incubation; assay type: functional, Salmonella enterica subsp. enterica serovar Pullorum; conditions: Salmonella enterica
Pseudomonas aeruginosa [19] = assay: Antimicrobial activity against Pseudomonas aeruginosa 27853 assessed as bacterial killing measured after 16 hrs incubation; assay type: functional
Acinetobacter baumannii [20] = assay: Antimicrobial activity against Acinetobacter baumannii 1.6769 assessed as bacterial killing measured after 16 hrs incubation; assay type: functional
Enterococcus faecalis [21] = assay: Antimicrobial activity against Enterococcus faecalis 29212 assessed as bacterial killing measured after 16 hrs incubation; assay type: functional
Listeria monocytogenes [22] = assay: Antimicrobial activity against Listeria monocytogenes 1.10753 assessed as bacterial killing measured after 16 hrs incubation; assay type: functional
Bacillus cereus [23] = assay: Antimicrobial activity against Bacillus cereus 1.932 assessed as bacterial killing measured after 16 hrs incubation; assay type: functional
Staphylococcus aureus [24] = assay: Antimicrobial activity against Staphylococcus aureus 29213 assessed as bacterial killing measured after 16 hrs incubation; assay type: functional
Staphylococcus aureus [25] = assay: Antimicrobial activity against Methicillin-resistant Staphylococcus aureus 43300 assessed as bacterial killing measured after 16 hrs incubation; assay type: functional
[26] = system: Staphylococcus epidermidis; assay: Antimicrobial activity against Staphylococcus epidermidis 12228 assessed as bacterial killing measured after 16 hrs incubation; assay type: functional
Staphylococcus aureus [27] = assay: Antimicrobial activity against Staphylococcus aureus 25923 assessed as bacterial killing measured after 16 hrs incubation; assay type: functional
Salmonella typhimurium [28] = assay: Antimicrobial activity against Salmonella typhimurium C7731 assessed as absence bacterial growth measured after 18 to 24 hrs incubation by NCCLS method; assay type: functional, Salmonella enterica subsp. enterica serovar Typhimurium; conditions: Salmonella enterica, time 18-24 hrs
Escherichia coli [29] = assay: Antimicrobial activity against Escherichia coli 25922 assessed as absence bacterial growth measured after 18 to 24 hrs incubation in presence of 50% serum by NCCLS method; assay type: functional; conditions: time 18-24 hrs
Escherichia coli [30] = assay: Antimicrobial activity against Escherichia coli 25922 assessed as absence bacterial growth measured after 18 to 24 hrs incubation in presence of 25% serum by NCCLS method; assay type: functional; conditions: time 18-24 hrs
Escherichia coli [31] = assay: Antimicrobial activity against Escherichia coli 25922 assessed as absence bacterial growth measured after 18 to 24 hrs incubation in presence of 12.5% serum by NCCLS method; assay type: functional; conditions: time 18-24 hrs
[32] = Hemolytic activity in human RBC at effective concentration at 128 uM measured after 1 hr by microplate reader relative to control; assay type: toxicity, cell-based, Erythrocyte; conditions: human red blood cells (erythrocytes), read-out: Activity
Escherichia coli [33] = assay: Antimicrobial activity against Escherichia coli 25922 assessed as absence bacterial growth measured after 18 to 24 hrs incubation in presence of NaCl by NCCLS method; assay type: functional; conditions: time 18-24 hrs
Escherichia coli [34] = assay: Antimicrobial activity against Escherichia coli 25922 assessed as absence bacterial growth measured after 18 to 24 hrs incubation in presence of KCl by NCCLS method; assay type: functional; conditions: time 18-24 hrs
Escherichia coli [35] = assay: Antimicrobial activity against Escherichia coli 25922 assessed as absence bacterial growth measured after 18 to 24 hrs incubation in presence of NH4Cl by NCCLS method; assay type: functional; conditions: time 18-24 hrs
Escherichia coli [36] = assay: Antimicrobial activity against Escherichia coli 25922 assessed as absence bacterial growth measured after 18 to 24 hrs incubation in presence of MgCl2 by NCCLS method; assay type: functional; conditions: time 18-24 hrs
Escherichia coli [37] = assay: Antimicrobial activity against Escherichia coli 25922 assessed as absence bacterial growth measured after 18 to 24 hrs incubation in presence of ZnCl2 by NCCLS method; assay type: functional; conditions: time 18-24 hrs
Escherichia coli [38] = assay: Antimicrobial activity against Escherichia coli 25922 assessed as absence bacterial growth measured after 18 to 24 hrs incubation in presence of FeCl3 by NCCLS method; assay type: functional; conditions: time 18-24 hrs
Erythrocyte = assay: Hemolytic activity in human RBC at effective concentration measured after 1 hr by microplate reader analysis; assay type: toxicity, cell-based
[39] = Cytotoxicity against mouse RAW264.7 cells assessed as cell survival rate measured after 8 hrs by MTT assay; assay type: toxicity, cell-based
[40] = Cytotoxicity against human HEK-293T cells assessed as cell survival rate measured after 8 hrs by MTT assay; assay type: toxicity, cell-based
[41] = Cytotoxicity against porcine IPEC-J2 cells assessed as cell survival rate measured after 8 hrs by MTT assay; assay type: toxicity, cell-based, Sus scrofa; conditions: pig

H-LKLWLKGGKLWLKGGKLWLKG-NH2
MIC (Escherichia coli [1]): 4 µM | MIC (Escherichia coli [2]): 1 µM | MIC (Salmonella typhimurium [3]): > 32 µM | MIC [4]: 2 µM | MIC (Pseudomonas aeruginosa [5]): 32 µM | MIC (Acinetobacter baumannii [6]): 16 µM | MIC (Enterococcus faecalis [7]): > 32 µM | MIC (Listeria monocytogenes [8]): > 32 µM | MIC (Bacillus cereus [9]): > 32 µM | MIC (Staphylococcus aureus [10]): > 32 µM | MIC (Staphylococcus aureus [11]): > 32 µM | MIC [12]: > 32 µM | MIC (Staphylococcus aureus [13]): > 32 µM | MBC (Escherichia coli [14]): 16 µM | MBC (Escherichia coli [15]): 1 µM | MBC (Salmonella typhimurium [16]): > 32 µM | MBC (Salmonella typhimurium [17]): > 32 µM | MBC [18]: 2 µM | MBC (Pseudomonas aeruginosa [19]): 32 µM | MBC (Acinetobacter baumannii [20]): 16 µM | MBC (Enterococcus faecalis [21]): > 32 µM | MBC (Listeria monocytogenes [22]): > 32 µM | MBC (Bacillus cereus [23]): > 32 µM | MBC (Staphylococcus aureus [24]): > 32 µM | MBC (Staphylococcus aureus [25]): > 32 µM | MBC [26]: > 32 µM | MBC (Staphylococcus aureus [27]): > 32 µM | MIC (Salmonella typhimurium [28]): > 32 µM | MIC (Escherichia coli [29]): > 32 µM | MIC (Escherichia coli [30]): > 32 µM | MIC (Escherichia coli [31]): 32 µM | hemolysis at 1 h, 128 µM [32]: < 10% | MIC (Escherichia coli [33]): > 32 µM | MIC (Escherichia coli [34]): 8 µM | MIC (Escherichia coli [35]): 8 µM | MIC (Escherichia coli [36]): > 32 µM | MIC (Escherichia coli [37]): 8 µM | MIC (Escherichia coli [38]): 8 µM | HC10 (Erythrocyte): > 128 µM | IC50 at 8 h [39]: > 64 µM | IC50 at 8 h [40]: > 64 µM | IC50 at 8 h [41]: 33.4 µM

H-WKLWLKGGKLWLKGGKLWLKG-NH2
MIC (Escherichia coli [1]): 4 µM | MIC (Escherichia coli [2]): 1 µM | MIC (Salmonella typhimurium [3]): 4 µM | MIC [4]: 1 µM | MIC (Pseudomonas aeruginosa [5]): 8 µM | MIC (Acinetobacter baumannii [6]): 4 µM | MIC (Enterococcus faecalis [7]): > 32 µM | MIC (Listeria monocytogenes [8]): > 32 µM | MIC (Bacillus cereus [9]): > 32 µM | MIC (Staphylococcus aureus [10]): > 32 µM | MIC (Staphylococcus aureus [11]): 8 µM | MIC [12]: 16 µM | MIC (Staphylococcus aureus [13]): > 32 µM | MBC (Escherichia coli [14]): 4 µM | MBC (Escherichia coli [15]): 1 µM | MBC (Salmonella typhimurium [16]): 8 µM | MBC (Salmonella typhimurium [17]): 32 µM | MBC [18]: 2 µM | MBC (Pseudomonas aeruginosa [19]): 16 µM | MBC (Acinetobacter baumannii [20]): 4 µM | MBC (Enterococcus faecalis [21]): > 32 µM | MBC (Listeria monocytogenes [22]): > 32 µM | MBC (Bacillus cereus [23]): > 32 µM | MBC (Staphylococcus aureus [24]): 8 µM | MBC (Staphylococcus aureus [25]): > 32 µM | MBC [26]: > 32 µM | MBC (Staphylococcus aureus [27]): > 32 µM | MIC (Salmonella typhimurium [28]): 4 µM | MIC (Escherichia coli [29]): > 32 µM | MIC (Escherichia coli [30]): > 32 µM | MIC (Escherichia coli [31]): > 32 µM | hemolysis at 1 h, 128 µM [32]: < 10% | MIC (Escherichia coli [33]): 16 µM | MIC (Escherichia coli [34]): 8 µM | MIC (Escherichia coli [35]): 8 µM | MIC (Escherichia coli [36]): > 32 µM | MIC (Escherichia coli [37]): 4 µM | MIC (Escherichia coli [38]): 4 µM | HC10 (Erythrocyte): 128 µM | IC50 at 8 h [39]: > 64 µM | IC50 at 8 h [40]: > 64 µM | IC50 at 8 h [41]: 12.9 µM
